The target of experiment [1] is His-tagged KRAS G12D protein (Homo sapiens, UniProt P01116, G12D). Nature of the experiment: KRAS G12D TR-FRET Assay. Type of experiment: binding. The method, then: KRAS G12D TR-FRET Assay Compounds of interest were prepared in a dose-response titration in DMSO, and 80 nL were added via Labcyte Echo to each well of a 384-well plate (Perkin Elmer 6008280). The His-tagged KRAS G12D protein (Amgen) was diluted to 20 nM in Assay Buffer (20 mM HEPES, pH 7.4, 10 mM MgCl2, 50 mM NaCl, 0.1% BSA, 0.01% Tween-20, 10 μM GDP) and 2 uL was added to the appropriate wells of the 384-well plate. The plate was incubated for 30 minutes at room temperature. Biotinylated KRPep-2d substrate (Amgen) was diluted to 20 nM in Assay Buffer and 2 μL was added to all wells and incubated for 1 hour at room temperature. Detection Reagent (0.4 nM LANCE Eu-W1024 Anti-6×-His (Perkin Elmer AD0401), 5 nM streptavidin-d2 (Cisbio 610SADLA)) was prepared in Assay Buffer, then 4 μL was added to the plate and incubated for 1 hour at room temperature. Plates were read using PerkinElmer EnVision (ex: 320 nm, em1: 665 nm, em2: 615 nm) and em1/em2 data was used to generate curve fits using a 4-parameter logistic model to calculate IC50 values.
In general terms: TR-FRET usually uses a lanthanide donor and a delayed reading to cut background.

For experiment [2], the system named is Phosphorylation of ERK1/2 in AsPC-1 cells. Nature of the experiment: Phospho-ERK1/2 MSD Assay. Type of experiment: cell-based. The method, then: AsPC-1 (ATCC® CRL-1682™) cells were cultured in RPMI 1640 Medium (ThermoFisher Scientific 11875093) containing 10% fetal bovine serum (ThermoFisher Scientific 16000044) and Ix penicillin-streptomycin-glutamine (ThermoFisher Scientific 10378016). Sixteen hours prior to compound treatment, AsPC-1 cells were seeded in 96-well cell culture plates at a density of 25,000 cells/well and incubated at 37° C., 5% CO2. A compound dose-response titration was diluted in growth media, added to appropriate wells of a cell culture plate, and then incubated at 37° C., 5% CO2 for 2 h. Following compound treatment, cells were washed with ice-cold Dulbecco's phosphate-buffered saline, no Ca^2+ or Mg^2+ (ThermoFisher Scientific 14190144), and then lysed in RIPA buffer (50 mM Tris-HCl pH 7.5, 1% Igepal, 0.5% sodium deoxycholate, 150 mM NaCl, and 0.5% sodium dodecyl sulfate) containing protease inhibitors (Roche 4693132001) and phosphatase inhibitors (Roche 4906837001). Phosphorylation of ERK1/2 in compound-treated lysates was assayed using Phospho-ERK1/2 Whole Cell Lysate kits (Meso Scale Discovery K151DWD) according to the manufacturer's protocol. Assay plates were read on a Meso Scale Discovery Sector Imager 6000, and data were analyzed using a 4-parameter logistic model to calculate IC50 values.

For experiment [3], the target named is GDP-bound KRAS protein (aa 1-169), containing both G12D and C118A amino acid substitutions (Homo sapiens, UniProt P01116, C118A/G12D). Nature of the experiment: KRAS G12D Coupled Nucleotide Exchange Assay. Type of experiment: biochemical. As to the method:
KRAS G12D Coupled Nucleotide Exchange Assay
Following compound pre-incubation, purified SOS protein (aa 564-1049) and GTP (Roche 10106399001) were added to the assay wells and incubated for an additional 30 min. […] The assay plates were then read on a PerkinElmer EnVision Multilabel Reader, using AlphaScreen® technology, and data were analyzed using a 4-parameter logistic model to calculate IC50 values.

The mark [4] stands for this setting: Homo sapiens, ASPC1, 2 h, read-out: 2 h p-ERK (AsPC-1 cells), IC50, AsPC-1 cells, 2 h compound treatment.
[5] abbreviates: read-out: 2 h p-ERK (AsPC-1 cells), IC50, AsPC-1 cells, 2 h compound treatment.

Where two headings read alike, the source gives them in different places.

For orientation: IC50 means the concentration that inhibits the measured activity by half.

Chain of His-tagged KRAS G12D protein (P01116 1-188 isoform P01116-2 G12D): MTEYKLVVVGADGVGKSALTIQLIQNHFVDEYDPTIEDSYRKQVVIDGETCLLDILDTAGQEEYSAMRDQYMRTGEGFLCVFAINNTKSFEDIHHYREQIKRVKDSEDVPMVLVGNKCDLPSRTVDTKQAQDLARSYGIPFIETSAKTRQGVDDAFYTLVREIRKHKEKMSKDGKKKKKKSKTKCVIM
Chain of GDP-bound KRAS protein (aa 1-169), containing both G12D and C118A amino acid substitutions (P01116 1-169 isoform P01116-2 G12D/C118A): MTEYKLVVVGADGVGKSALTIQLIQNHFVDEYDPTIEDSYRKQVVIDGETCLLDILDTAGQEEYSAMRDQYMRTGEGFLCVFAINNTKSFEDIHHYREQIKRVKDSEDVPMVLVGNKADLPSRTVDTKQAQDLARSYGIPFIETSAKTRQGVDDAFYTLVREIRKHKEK

On to `CCc1c(F)ccc2cc(O)cc(-c3c(F)cc4c(N5C[C@@H]6CO[C@@H](C6)C5)nc(OC[C@@]56CCCN5C[C@H](F)C6)nc4c3F)c12` (racemic) [Example 36, rac-4-(4-((1R,5S)-6-Oxa-3-azabicyclo[3.2.1]octan-3-yl)-6,8-difluoro-2-(((2R,7aS)-2-fluorotetrahydro-1H-pyrrolizin-7a(5H)-yl)methoxy)quinazolin-7-yl)-5-ethyl-6-fluoronaphthalen-2-ol], for which the IC50 is 20 nM in experiment [1], 1080 nM in experiment [2] (setting [4]) and 12 nM in experiment [3].

With `CCc1c(F)ccc2cc(O)cc(-c3c(F)cc4c(N5C[C@H]6CC[C@@H](C5)O6)nc(OC[C@@]56CCCN5C[C@H](F)C6)nc4c3F)c12` (relative stereo) [Example 18, rel-4-(4-((1R,5S)-8-Oxa-3-azabicyclo[3.2.1]octan-3-yl)-6,8-difluoro-2-(((2R,7aS)-2-fluorotetrahydro-1H-pyrrolizin-7a(5H)-yl)methoxy)quinazolin-7-yl)-5-ethyl-6-fluoronaphthalen-2-ol], the half-inhibitory concentration (IC50) came out at 46 nM in experiment [1], 2890 nM in experiment [2] (setting [4]) and 37 nM in experiment [3].

For `C[C@@H]1C[C@@H]1c1c(Cl)cc2[nH]ncc2c1-c1c(F)cc2c(N3CCC[C@]4(CNC(=O)O4)C3)nc(OC[C@@]34CCCN3C[C@H](F)C4)nc2c1F` (relative stereo) [Example 111, (5S)-7-(7-(6-Chloro-5~(2-methylcyclopropyl)-1H-indazol-4-yl)-6,8-difluoro-2-(((2R,7aS)-2-fluorotetrahydro-1H-pyrrolizin-7a(5H)-yl)methoxy)quinazolin-4-yl)-1-oxa-3,7-diazaspiro[4.5]decan-2-one 2,2,2-trifluoroacetate], the values for the 50% inhibitory concentration (IC50) in experiment [1], in experiment [2] (setting [4]) and in experiment [3] were 5 nM, 55 nM and 4 nM, respectively.

Take `CCc1c(F)ccc2cc(O)cc(-c3c(F)cc4c(N5CCC[C@@](C)(O)C5)nc(OC[C@@]56CCCN5C[C@H](F)C6)nc4c3F)c12` (single isomer, unassigned) [Example 2]: the results for the half-maximal inhibitory concentration (IC50) in experiment [1], in experiment [2] (setting [4]) and in experiment [3] were 1 nM, 9 nM and 1 nM, respectively.

Turning to `C#Cc1cccc2cc(O)cc(-c3c(F)cc4c(N5CCC[C@@](C)(O)C5)nc(OC[C@@]56CCCN5C[C@H](F)C6)nc4c3F)c12` (single isomer, unassigned) [Example 12], the IC50 in experiment [1] worked out at 1 nM; in experiment [2] (setting [4]) it was 5 nM; in experiment [3], 1 nM.

Turning to `C#Cc1c(F)ccc2cc(O)cc(-c3c(F)cc4c(N5CCC[C@@](C)(O)C5)nc(OC[C@@]56CCCN5C[C@H](F)C6)nc4c3F)c12` (single isomer, unassigned) [Example 13], the IC50 in experiment [1] was 968 nM; in experiment [2] (setting [5]), 205 nM; in experiment [3], 1254 nM.

Consider `C#Cc1c(F)ccc2cc(O)cc(-c3c(F)cc4c(N5CCC[C@@](C)(O)C5)nc(OC[C@@]56CCCN5C[C@H](F)C6)nc4c3F)c12` (single isomer, unassigned) [Example 14], for which the results for the IC50 in experiment [1], in experiment [2] (setting [5]) and in experiment [3] were 1 nM, 3 nM and 2 nM, respectively.

Turning to `CCc1c(F)ccc2cc(O)cc(-c3ccc4c(N5CC6CC(O)C(C6)C5)nc(OC[C@@]56CCCN5C[C@H](F)C6)nc4c3F)c12` (single isomer, unassigned) [Example 15], the IC50 in experiment [1] was found to be 4 nM; in experiment [2] (setting [4]) it was 297 nM; in experiment [3], 4 nM.

`C#Cc1cccc2cc(O)cc(-c3ccc4c(N5CC6CC(O)C(C6)C5)nc(OC[C@@]56CCCN5C[C@H](F)C6)nc4c3F)c12` (single isomer, unassigned) [Example 16]: the IC50 was 2 nM in experiment [1], 132 nM in experiment [2] (setting [4]) and 2 nM in experiment [3].

In the case of `C#Cc1c(F)ccc2cc(O)cc(-c3ccc4c(N5CC6CC(O)C(C6)C5)nc(OC[C@@]56CCCN5C[C@H](F)C6)nc4c3F)c12` (single isomer, unassigned) [Example 17], the 50% inhibitory concentration (IC50) in experiment [1] was 11 nM; in experiment [2] (setting [4]), 744 nM; in experiment [3], 9 nM.

With `CCc1c(F)ccc2cc(O)cc(-c3c(F)cc4c(N5CCCC(O)(C(F)F)C5)nc(OC[C@@]56CCCN5C[C@H](F)C6)nc4c3F)c12` (single isomer, unassigned) [Example 20], the concentration for half-maximal inhibition (IC50) in experiment [1] was determined as 2 nM; in experiment [2] (setting [4]), 58 nM; in experiment [3], 2 nM.

Take `CCc1c(F)ccc2cc(O)cc(-c3ccc4c(N5CCCC(O)(C(F)F)C5)nc(OC[C@@]56CCCN5C[C@H](F)C6)nc4c3F)c12` (single isomer, unassigned) [Example 23]: the figures for the 50% inhibitory concentration (IC50) in experiment [1], in experiment [2] (setting [4]) and in experiment [3] were 2 nM, 157 nM and 2 nM, respectively.

As to `CCc1c(F)ccc2cc(O)cc(-c3c(O)cc4c(N5CCC[C@@](C)(O)C5)nc(OC[C@@]56CCCN5C[C@H](F)C6)nc4c3F)c12` (single isomer, unassigned) [Example 27], the IC50 in experiment [1] is 1 nM; in experiment [2] (setting [4]), 18 nM; in experiment [3], 1 nM.

Consider `CCc1c(F)ccc2cc(O)cc(-c3ccc4c(N5CCOCC(C)(O)C5)nc(OC[C@@]56CCCN5C[C@H](F)C6)nc4c3F)c12` (single isomer, unassigned) [Example 29], for which the figures for the concentration for half-maximal inhibition (IC50) in experiment [1], in experiment [2] (setting [4]) and in experiment [3] were 1 nM, 15 nM and 1 nM, respectively.

As to `CCc1cccc2cc(O)cc(-c3ccc4c(N5CCOCC(C)(O)C5)nc(OC[C@@]56CCCN5C[C@H](F)C6)nc4c3F)c12` (single isomer, unassigned) [Example 30], the results for the IC50 in experiment [1], in experiment [2] (setting [4]) and in experiment [3] were 3 nM, 12 nM and 3 nM, respectively.

As to `CC1(O)COCCN(c2nc(OC[C@@]34CCCN3C[C@H](F)C4)nc3c(F)c(-c4cc(O)cc5ccc(F)c(F)c45)ccc23)C1` (single isomer, unassigned) [Example 31], the results for the IC50 in experiment [1], in experiment [2] (setting [4]) and in experiment [3] were 3 nM, 27 nM and 2 nM, respectively.

For `CC1(O)COCCN(c2nc(OC[C@@]34CCCN3C[C@H](F)C4)nc3c(F)c(-c4cc(O)cc5ccc(F)c(F)c45)c(F)cc23)C1` (single isomer, unassigned) [Example 32], the IC50 amounted to 5 nM in experiment [1], 25 nM in experiment [2] (setting [4]) and 3 nM in experiment [3].

With `CCc1cccc2cc(O)cc(-c3c(F)cc4c(N5CCOCC(C)(O)C5)nc(OC[C@@]56CCCN5C[C@H](F)C6)nc4c3F)c12` (single isomer, unassigned) [Example 33], the IC50 in experiment [1] turned out to be 5 nM; in experiment [2] (setting [4]), 4 nM; in experiment [3], 3 nM.

With `CCc1c(F)ccc2cc(O)cc(-c3c(F)cc4c(N5CCOCC(C)(O)C5)nc(OC[C@@]56CCCN5C[C@H](F)C6)nc4c3F)c12` (single isomer, unassigned) [Example 34], the IC50 in experiment [1], in experiment [2] (setting [4]) and in experiment [3] was 2 nM each time.

Regarding `CCc1c(F)ccc2cc(O)cc(-c3c(F)cc4c(N5CCCC6(CCO6)C5)nc(OC[C@@]56CCCN5C[C@H](F)C6)nc4c3F)c12` (single isomer, unassigned) [Example 38], the IC50 in experiment [1] was 12 nM; in experiment [2] (setting [5]), 425 nM; in experiment [3], 12 nM.

For `CCc1c(F)ccc2cc(O)cc(-c3c(F)cc4c(N5CCCC6(CCO6)C5)nc(OC[C@@]56CCCN5C[C@H](F)C6)nc4c3F)c12` (single isomer, unassigned) [Example 39], the IC50 in experiment [1] stood at 3 nM; in experiment [2] (setting [5]), 10 nM; in experiment [3] it was 4 nM.

Turning to `CCc1c(F)ccc2cc(O)cc(-c3c(F)cc4c(N5CCCC6(CNC(=O)O6)C5)nc(OC[C@@]56CCCN5C[C@H](F)C6)nc4c3F)c12` (single isomer, unassigned) [Example 56], the IC50 in experiment [1] was 24 nM; in experiment [2] (setting [5]), 507 nM; in experiment [3] it was 8 nM.
